Source: patent US5750531A, “Pyrimidine derivatives and processes for the preparation thereof” (Yuhan Corporation, priority 1994, dated 1998)
Where a name gives a salt, the structure may show the parent alone.

What was measured:
gastric secretion = assay: Inhibition of gastric secretion (pylorus ligation, Shay method); assay type: in vivo, Male Sprague-Dawley rats; conditions: 20 mg/kg intraduodenally, 5 hours; for Rel. Conc.: acid concentration relative to omeprazole; for Relative Acid Output: acid output relative to omeprazole; for Rel. Vol.: gastric juice volume relative to omeprazole
Method: Inhibition of gastric secretion […] Under ether anesthesia, the abdomen was incised, and the pylorus was ligated. […] After closing the abdominal cavity, the rats were placed for 5 hours and then killed by cervical dislocation. The stomach was extracted to obtain gastric juice. The gastric juice was centrifuged at 1,000 g to remove precipitates. The amount and acidity of the gastric juice were measured. Relative volumes, relative acid concentrations and relative acid outputs of the test compounds were calculated from equations(I), (II) and (III) and the results are shown in Table 2. […] Group 3) (II) […] (III)

[1] = target: proton pump(H^+ /K^+ ATPase); assay: Inhibition of proton pump(H^+ /K^+ ATPase) activity; assay type: biochemical; conditions: pH 6.0, 37° C., 30 minutes preincubation and 30 minutes reaction; read-out: IC50 Test compound
Method: Test 1: Inhibition of proton pump(H^+ /K^+ ATPase) activity
A proton pump enzyme source was prepared by the same method as in Experiment 1-1 of WO 94/14795. Further, the inhibitory effect of proton pump activity was measured by the same method as in Experiment 1-2 of WO 94/14795.
Namely, the proton pump activity stimulated by Mg^++ was used as a negative comparative group, and the activity stimulated by Mg^++ and K^+ was used as a positive comparative group. The comparative compound was omeprazole.
Test tubes were divided into 4 groups: Group 1 as negative comparative group(n=3), Group 2 as positive comparative group(n=3), Group 3(n=5×2) to be administered with the compound of the present invention and Group 4(n=5×2) to be administered with the comparative compound.
The inhibitory effects of Groups 3 and 4 on proton pump activity were measured by employing the compound prepared in Example and omeperazole, respectively, each of which was dissolved in dimethylsulfoxide at 5 different concentrations.
To each of Groups 1, 2, 3 and 4 were added 100 μl of magnesium chloride(40 mM) dissolved in 40 mM Tris-HCl buffer(pH 6.0) and 100μ of the enzyme source. Then, 50μ of potassium chloride(50 mM) and 50 μl of ammonium chloride(6 mM) dissolved in 40 mM Tris-HCl buffer(pH 6.0) were added to all groups except for Group 1.
10 μl of dimethylsulfoxide was added to each of Groups 1 and 2; and to Group 3 was added 10 μl of the solution in which the compound prepared in Example was dissolved in dimethylsulfoxide at 5 different concentrations(n=5×2). To Group 4, 10 μl of the solution prepared by dissolving omeprazole in dimethylsulfoxide at 5 different concentrations(37.6, 21.4, 12.2, 7.0 and 4.0 μM) was added(n=5×2). 40 mM Tris-HCl buffer(pH=6.0) was added thereto so as to make the total volume 400 μl.
Thereafter, the test tubes of each Group were placed at 37° C. for 30 minutes for the preincubation. 100 μl of ATP solution (6.6 mM) was added until the reaction volume became 500 μl. After the reaction was carried out at 37° C. for 30 minutes, 25% cold trichloroacetic acid was added to terminate the enzyme reaction. The released inorganic phosphate was measured by an automatic analyzer(Express 550, Corning).
The difference between Group 1 and Group 2 represents the proton pump activity activated by K^+ only. The inhibition percentages of Groups 3 and 4 were calculated from Litchfield-wilcoxon equation[see, e.g., J. pharmacol. Exp. Ther., 96, 99(1949)]. The concentrations of the test compounds which inhibit 50% of the proton pump activity are represented as IC50 in Table 1.

Row | Compound | IC50 [1] [µM] | Rel. Conc. (gastric secretion) | Relative Acid Output (gastric secretion) | Rel. Vol. (gastric secretion)
1 | Cc1cc(F)ccc1Nc1nc(C)c(C)c(N2CCc3ccccc3[C@@H]2C)n1.Cl [Example 14, (S)-5,6-dimethyl-2-(2-methyl-4-fluorophenylamino)-4-(1-methyl-1,2,3,4-tetrahydroisoquinolin-2-yl)pyrimidine hydrochloride] | 0.7 | 0.3 | 0.72 | 0.53
2 | Cc1nc(Nc2ccc(F)cc2)nc(N2CCc3ccccc3C2C)c1C.Cl (stereo not shown) [Example 15, 5,6-dimethyl-2-(4-fluorophenylamino)-4-(1-methyl-1,2,3,4-tetrahydroisoquinolin-2-yl)pyrimidine hydrochloride] | 1.6 | 1.06 | 0.99 | 0.8
3 | Cc1nc(Nc2ccc(F)cc2)nc(N2CCc3ccccc3[C@H]2C)c1C.Cl [Example 16, (R)-5,6-dimethyl-2-(4-fluorophenylamino)-4-(1-methyl-1,2,3,4-tetrahydroisoquinolin-2-yl)pyrimidine hydrochloride] | 1.5 | 1.24 | 1.13 | 0.96
4 | Cc1nc(Nc2ccc(F)cc2)nc(N2CCc3ccccc3[C@@H]2C)c1C.Cl [Example 17, (S)-5,6-dimethyl-2-(4-fluorophenylamino)-4-(1-methyl-1,2,3,4-tetrahydroisoquinolin-2-yl)pyrimidine hydrochloride] | 1.8 | 0.97 | 0.89 | 0.82
5 | Cc1nc(N(C)c2ccccc2)nc(N2CCc3ccccc3C2C)c1C.Cl (stereo not shown) [Example 18, 5,6-dimethyl-2-(N-methylphenylamino)-4-(1-methyl-1,2,3,4-tetrahydroisoquinolin-2-yl)pyrimidine hydrochloride] | 4.2 | 1.82 | 1.39 | 1.72
6 | Cc1ccc(Nc2nc(C)c(C)c(N3CCc4ccccc4C3C)n2)cc1.Cl (stereo not shown) [Example 25, 5,6-dimethyl-2-(4-methylphenylamino)-4-(1-methyl-1,2,3,4-tetrahydroisoquinolin-2-yl)pyrimidine hydrochloride] | 1.4 | 0.8 | 0.92 | 1.06
7 | CCc1nc(Nc2ccc(F)cc2C)nc(N2CCc3ccccc3C2C)c1C.Cl (stereo not shown) [Example 26, 5-methyl-6-ethyl-2-(2-methyl-4-fluorophenylamino)-4-(1-methyl-1,2,3,4-tetrahydroisoquinolin-2-yl)pyrimidine hydrochloride] | 0.8 | 0.53 | 0.73 | 0.6
8 | CCc1nc(Nc2ccc(F)cc2)nc(N2CCc3ccccc3C2C)c1C.Cl (stereo not shown) [Example 27, 5-methyl-6-ethyl-2-(4-fluorophenylamino)-4-(1-methyl-1,2,3,4-tetrahydroisoquinolin-2-yl)pyrimidine hydrochloride] | 2.1 | 0.61 | 0.81 | 0.7
9 | Cc1cc(F)ccc1Nc1nc2c(c(N3CCc4ccccc4C3C)n1)CCCC2.Cl (stereo not shown) [Example 32, 2-(2-methyl-4-fluorophenylamino)-4-(1-methyl-1,2,3,4-tetrahydroisoquinolin-2-yl)-5,6,7,8-tetrahydroquinazoline hydrochloride] | 1.2 | 0.97 | 0.91 | 1.03
10 | Cc1cc(N2CCc3ccccc3C2)nc(Nc2ccc(F)cc2C)n1.Cl [Example 34, 6-methyl-2-(2-methyl-4-fluorophenylamino)-4-(1,2,3,4-tetrahydroisoquinolin-2-yl)pyrimidine hydrochloride] | 1 | 1 | 0.99 | 0.99

Continued, in another order:

Row | IC50 [1] [µM] | Compound | Rel. Conc. (gastric secretion) | Relative Acid Output (gastric secretion) | Rel. Vol. (gastric secretion)
11 | 3.9 | Cc1nc(N(C)c2ccccc2)nc(N2CCc3ccccc3[C@H]2C)c1C.Cl [Example 19, (R)-5,6-Dimethyl-2-(N-methylphenylamino)-4-(1-methyl-1,2,3,4-tetrahydroisoquinolin-2-yl)pyrimidine hydrochloride] | 1.86 | 1.43 | 1.8
12 | 4.4 | Cc1nc(N(C)c2ccccc2)nc(N2CCc3ccccc3[C@@H]2C)c1C.Cl [Example 20, (S)-5,6-dimethyl-2-(N-methylphenylamino)-4-(1-methyl-1,2,3,4-tetrahydroisoquinolin-2-yl)pyrimidine hydrochloride] | 1.75 | 1.28 | 1.66
13 | 1.5 | Cc1nc(Nc2ccccc2)nc(N2CCc3ccccc3C2C)c1C.Cl (stereo not shown) [Example 21, 5,6-dimethyl-2-(phenylamino)-4-(1-methyl-1,2,3,4-tetrahydroisoquinolin-2-yl)pyrimidine hydrochloride] | 0.88 | 0.97 | 1.06
14 | 1.4 | Cc1nc(Nc2ccccc2)nc(N2CCc3ccccc3[C@H]2C)c1C [Example 22, (R)-5,6-Dimethyl-2-(4-phenylamino)-4-(1-methyl-1,2,3,4-tetrahydroisoquinolin-2-yl)pyrimidine hydrochloride] | 0.8 | 0.90 | 0.99
15 | 2 | Cc1nc(Nc2ccccc2)nc(N2CCc3ccccc3[C@@H]2C)c1C [Example 23, hydrochloride] | 0.78 | 0.88 | 0.92
16 | 0.6 | Cc1ccccc1Nc1nc(C)c(C)c(N2CCc3ccccc3C2C)n1.Cl (stereo not shown) [Example 24, 5,6-Dimethyl-2-(2-methylphenylamino)-4-(1-methyl-1,2,3,4-tetrahydroisoquinolin-2-yl)pyrimidine hydrochloride] | 1.03 | 1.01 | 1
17 | > 15 | CCc1nc(N(C)c2ccccc2)nc(N2CCc3ccccc3C2C)c1C.Cl (stereo not shown) [Example 28, 5-methyl-6-ethyl-2-(N-methylphenylamino)-4-(1-methyl-1,2,3,4-tetrahydroisoquinolin-2-yl)pyrimidine hydrochloride] | 0.44 | 0.78 | 0.71
18 | 0.4 | Cc1cc(F)ccc1Nc1nc2c(c(N3CCc4ccccc4C3C)n1)CCC2 (stereo not shown) [Example 29, hydrochloride] | 0.31 | 0.6 | 0.56
19 | ~8.4 | CC1c2ccccc2CCN1c1nc(Nc2ccc(F)cc2)nc2c1CCC2 (stereo not shown) [Example 30, hydrochloride] | 0.2 | 0.39 | 0.33
20 | ~15 | CC1c2ccccc2CCN1c1nc(N(C)c2ccccc2)nc2c1CCC2 (stereo not shown) [Example 31, 2-(N-methylphenylamino)-4-(1-methyl-1,2,3,4-tetrahydroisoquinolin-2-yl)cyclopenta[d]pyrimidine hydrochloride] | 0.21 | 0.74 | 0.83
21 | 2.5 | Cc1cc(N2CCc3ccccc3C2)nc(Nc2ccc(F)cc2)n1.Cl [Example 35, 6-methyl-2-(4-fluorophenylamino)-4-(1,2,3,4-tetrahydroisoquinoline-2-yl)pyrimidine hydrochloride] | 0.84 | 0.94 | 1.05
22 | 0.7 | CCc1cc(N2CCc3ccccc3C2)nc(Nc2ccc(F)cc2C)n1.Cl [Example 37, 6-ethyl-2-(2-methyl-4-fluorophenylamino)-4-(1,2,3,4-tetrahydroisoquinolin-2-yl)pyrimidine hydrochloride] | 0.42 | 0.82 | 0.82
